Test results from patent US10538487B2, “Sulfonylureas and related compounds and use of same” (priority 2015, dated 2020).
Read-outs that look alike come from different tables or passages of the source.

Assay: Single dose pharmacokinetic study in mice (iv 4 mg/Kg, po 20 mg/Kg), plasma concentration post-dosing
Type: in vivo, mouse
Details: male, C57BL/6, mouse, plasma, mouse; for concentration at 5 min: 5 min post dosing; for concentration at 0.25 h: 0.250 h post dosing; for concentration at 0.5 h: 0.500 h post dosing; for concentration at 1 h: 1.00 h post dosing; for concentration at 2 h: 2.00 h post dosing; for concentration at 4 h: 4.00 h post dosing; for concentration at 8 h: 8.00 h post dosing; for concentration at 24 h: 24.0 h post dosing
Experimental: This is advantageous leading to comparatively lower doses or less frequent administration. The procedure followed was: Male C57BL/6 mice were used at 7-9 weeks age with 3 animals per group. Mice were dosed with test compound using single intravenous bolus or oral gavage. Blood samples were taken via submandibular or saphenous vein for analysis of plasma concentrations of compound by LC-MS/MS at the following timepoints: IV (3 mice): 0.083, 0.25, 0.5, 1, 2, 4, 8 and 24 hours post dosing, PO (3 mice): 0.25, 0.5, 1, 2, 4, 8 and 24 hours post dosing. LC-MS/MS method for the quantitative determination of test compound in corresponding biological matrix was developed. […] The results are shown graphically in FIGS. 1A to 1C (MCC950) and FIGS. 2A to 2C (MCC7840).

Structure (SMILES): CC(C)n1ccc(S(=O)(=O)NC(=O)Nc2c3c(cc4c2CCC4)CCC3)n1 [MCC_007840_002]
- concentration at 5 min (iv, 4 mg/kg, IV 4 mg/Kg, individual mice M1-M3, read-out: Plasma concentration, IV Time 0.0833 h): 47800 ng/mL
- concentration at 5 min (iv, 4 mg/kg, IV 4 mg/Kg, mean of 3 mice, read-out: Plasma concentration, IV Time 0.0833 h, Mean IV): 42800 ng/mL
- concentration at 0.25 h (iv, 4 mg/kg, IV 4 mg/Kg, individual mice M1-M3, read-out: Plasma concentration, IV Time 0.250 h): 28100 ng/mL
- concentration at 0.25 h (iv, 4 mg/kg, IV 4 mg/Kg, mean of 3 mice, read-out: Plasma concentration, IV Time 0.250 h, Mean IV): 28900 ng/mL
- concentration at 0.5 h (iv, 4 mg/kg, IV 4 mg/Kg, individual mice M1-M3, read-out: Plasma concentration, IV Time 0.500 h): 25200 ng/mL
- concentration at 0.5 h (iv, 4 mg/kg, IV 4 mg/Kg, mean of 3 mice, read-out: Plasma concentration, IV Time 0.500 h, Mean IV): 25000 ng/mL
- concentration at 1 h (iv, 4 mg/kg, IV 4 mg/Kg, individual mice M1-M3, read-out: Plasma concentration, IV Time 1.00 h): 19900 ng/mL
- concentration at 1 h (iv, 4 mg/kg, IV 4 mg/Kg, mean of 3 mice, read-out: Plasma concentration, IV Time 1.00 h, Mean IV): 18700 ng/mL
- concentration at 2 h (iv, 4 mg/kg, IV 4 mg/Kg, individual mice M1-M3, read-out: Plasma concentration, IV Time 2.00 h): 13300 ng/mL
- concentration at 2 h (iv, 4 mg/kg, IV 4 mg/Kg, mean of 3 mice, read-out: Plasma concentration, IV Time 2.00 h, Mean IV): 16000 ng/mL
- concentration at 4 h (iv, 4 mg/kg, IV 4 mg/Kg, individual mice M1-M3, read-out: Plasma concentration, IV Time 4.00 h): 6520 ng/mL
- concentration at 4 h (iv, 4 mg/kg, IV 4 mg/Kg, mean of 3 mice, read-out: Plasma concentration, IV Time 4.00 h, Mean IV): 7890 ng/mL
- concentration at 8 h (iv, 4 mg/kg, IV 4 mg/Kg, individual mice M1-M3, read-out: Plasma concentration, IV Time 8.00 h): 3490 ng/mL
- concentration at 8 h (iv, 4 mg/kg, IV 4 mg/Kg, mean of 3 mice, read-out: Plasma concentration, IV Time 8.00 h, Mean IV): 3760 ng/mL
- concentration at 24 h (iv, 4 mg/kg, IV 4 mg/Kg, individual mice M1-M3, read-out: Plasma concentration, IV Time 24.0 h): 149 ng/mL
- concentration at 24 h (iv, 4 mg/kg, IV 4 mg/Kg, mean of 3 mice, read-out: Plasma concentration, IV Time 24.0 h, Mean IV): 134 ng/mL
- AUC0-inf (iv, 4 mg/kg, IV 4 mg/Kg, individual mice M1-M3, read-out: AUC0-inf): 101 µg·h/mL
- AUC(0-t) (iv, 4 mg/kg, IV 4 mg/Kg, individual mice M1-M3, read-out: AUC0-last): 100 µg·h/mL
- C0 (iv, 4 mg/kg, IV 4 mg/Kg, individual mice M1-M3, read-out: C0): 62300 ng/mL
- clearance (iv, 4 mg/kg, IV 4 mg/Kg, individual mice M1-M3, read-out: Cl): 0.659 mL/min/kg
- MRT inf (iv, 4 mg/kg, IV 4 mg/Kg, individual mice M1-M3, read-out: MRT0-inf): 4.3 h
- MRT last (iv, 4 mg/kg, IV 4 mg/Kg, individual mice M1-M3, read-out: MRT0-last): 4.11 h
- half-life (iv, 4 mg/kg, IV 4 mg/Kg, individual mice M1-M3, read-out: T1/2 (converted)): 3.62 h
- Vd (iv, 4 mg/kg, IV 4 mg/Kg, individual mice M1-M3, read-out: Vdss): 0.17 L/kg
- AUC0-inf (iv, 4 mg/kg, IV 4 mg/Kg, mean of 3 mice, read-out: AUC0-inf, Mean IV): 108 µg·h/mL
- AUC(0-t) (iv, 4 mg/kg, IV 4 mg/Kg, mean of 3 mice, read-out: AUC0-last, Mean IV): 107 µg·h/mL
- clearance (iv, 4 mg/kg, IV 4 mg/Kg, mean of 3 mice, read-out: Cl, Mean IV): 0.621 mL/min/kg
- MRT inf (iv, 4 mg/kg, IV 4 mg/Kg, mean of 3 mice, read-out: MRT0-inf, Mean IV): 4.29 h
- MRT last (iv, 4 mg/kg, IV 4 mg/Kg, mean of 3 mice, read-out: MRT0-last, Mean IV): 4.13 h
- half-life (iv, 4 mg/kg, IV 4 mg/Kg, mean of 3 mice, read-out: T1/2, Mean IV (converted)): 3.39 h
- Vd (iv, 4 mg/kg, IV 4 mg/Kg, mean of 3 mice, read-out: Vdss, Mean IV): 0.16 L/kg
- concentration at 0.25 h (po, 20 mg/kg, PO 20 mg/Kg, mean of 3 mice, read-out: Plasma concentration, PO Time 0.250 h, Mean PO): 60500 ng/mL
- concentration at 0.5 h (po, 20 mg/kg, PO 20 mg/Kg, mean of 3 mice, read-out: Plasma concentration, PO Time 0.500 h, Mean PO): 50300 ng/mL
- concentration at 1 h (po, 20 mg/kg, PO 20 mg/Kg, mean of 3 mice, read-out: Plasma concentration, PO Time 1.00 h, Mean PO): 42300 ng/mL
- concentration at 2 h (po, 20 mg/kg, PO 20 mg/Kg, mean of 3 mice, read-out: Plasma concentration, PO Time 2.00 h, Mean PO): 42600 ng/mL
- concentration at 4 h (po, 20 mg/kg, PO 20 mg/Kg, mean of 3 mice, read-out: Plasma concentration, PO Time 4.00 h, Mean PO): 26600 ng/mL
- concentration at 8 h (po, 20 mg/kg, PO 20 mg/Kg, mean of 3 mice, read-out: Plasma concentration, PO Time 8.00 h, Mean PO): 18900 ng/mL
- concentration at 24 h (po, 20 mg/kg, PO 20 mg/Kg, mean of 3 mice, read-out: Plasma concentration, PO Time 24.0 h, Mean PO): 1470 ng/mL
- AUC0-inf (po, 20 mg/kg, PO 20 mg/Kg, individual mice M4-M6, read-out: AUC0-inf): 368 µg·h/mL
- MRT last (po, 20 mg/kg, PO 20 mg/Kg, individual mice M4-M6, read-out: MRT0-last): 4.8 h
- Tmax (po, 20 mg/kg, PO 20 mg/Kg, individual mice M4-M6, read-out: Tmax): 0.25 h
- AUC0-inf (po, 20 mg/kg, PO 20 mg/Kg, mean of 3 mice, read-out: AUC0-inf, Mean PO): 362 µg·h/mL
- AUC(0-t) (po, 20 mg/kg, PO 20 mg/Kg, mean of 3 mice, read-out: AUC0-last, Mean PO): 350 µg·h/mL
- Cmax (po, 20 mg/kg, PO 20 mg/Kg, mean of 3 mice, read-out: Cmax, Mean PO): 60500 ng/mL
- MRT inf (po, 20 mg/kg, PO 20 mg/Kg, mean of 3 mice, read-out: MRT0-inf, Mean PO): 7.52 h
